The source of these data is patent publication US20110105472A1, “Diaminopyrimidines as crop protection agents” (Bayer CropScience AG, priority 2008, published 2011).

This data set can be described thus: logP by LC-MS, method [b], acidic range pH 2.7. Format: physicochemical.

Structures are written as SMILES. Read-outs that look alike come from different tables or passages of the source.

Turning to `N#Cc1ccc(Nc2ncc(Br)c(NC3CCC3)n2)cc1` [Compound 70], the log p (pH 2.7) is 2.95[b].

For the molecule `FC(F)(F)Sc1ccc(Nc2ncc(Br)c(NC3CCC3)n2)cc1` [Compound 71], the log p (pH 2.7) was 4.51[b].

Consider `O=C(Nc1ccccc1)c1ccc(Nc2ncc(Br)c(NC3CCC3)n2)cc1` [Compound 72], for which the log p (pH 2.7) was 2.09[b].

Regarding `CSc1ccc(Nc2ncc(Br)c(NC3CCC3)n2)cc1Cl` [Compound 73], the log p (pH 2.7) was 3.5[b].

As to `Brc1cnc(Nc2ccc(-c3cscn3)cc2)nc1NC1CCC1` [Compound 74], the log p (pH 2.7) is 2.26[b].

Regarding `FC(F)Oc1ccc(Nc2ncc(Br)c(NC3CCC3)n2)cc1` [Compound 75], for the setting “pH 2.7”, the log p is 2.5[b].

On to `Clc1cc(Cl)cc(Nc2ncc(Br)c(NC3CCC3)n2)c1` [Compound 76], for which the log p (pH 2.7) was 4.98[b].

Turning to `CCOC(=O)c1cccc(Nc2ncc(Br)c(NC3CCC3)n2)c1` [Compound 77], the log p (pH 2.7) is 2.77[b].

With `COC(=O)c1ccc(Nc2ncc(Br)c(NC3CCC3)n2)cc1Cl` [Compound 78], the log p (pH 2.7) is 3.59[b].

Take `NS(=O)(=O)c1cc(Nc2ncc(Br)c(NC3CCC3)n2)ccc1Cl` [Compound 79]: the log p (pH 2.7) is 2.02[b].

Take `Oc1ccc(Nc2ncc(Br)c(NC3CCC3)n2)c(F)c1` [Compound 80]: the log p (pH 2.7) is 1.55[b].

Take `FC(F)(F)Oc1ccc(Nc2ncc(Br)c(NC3CCC3)n2)cc1Cl` [Compound 81]: the log p (pH 2.7) is 4.72[b].

As for `C=CC(=O)Nc1cccc(Nc2ncc(Br)c(NC3CCC3)n2)c1` [Compound 82], the log p (pH 2.7) was 1.71[b].

As for `C=CCNC(=O)c1ccc(Nc2ncc(Br)c(NC3CCC3)n2)cc1` [Compound 83], the log p (pH 2.7) was 1.99[b].

Regarding `COc1cc(Nc2ncc(Br)c(NC3CCC3)n2)ccc1NS(C)(=O)=O` [Compound 84], the log p (pH 2.7) was 1.75[b].

Turning to `CS(=O)(=O)Nc1ccc(Nc2ncc(Br)c(NC3CCC3)n2)cc1` [Compound 85], the log p (pH 2.7) is 1.61[b].

With `CNS(=O)(=O)Cc1ccc(Nc2ncc(Br)c(NC3CCC3)n2)cc1` [Compound 86], the log p (pH 2.7) was 1.71[b].

For the molecule `CN(C)S(=O)(=O)Oc1cccc(Nc2ncc(Br)c(NC3CCC3)n2)c1` [Compound 89], the log p (pH 2.7) is 2.7[b].

For `COc1cc(Nc2ncc(Br)c(NC3CCC3)n2)ccc1NC(C)=O` [Compound 90], the log p (pH 2.7) is 1.59[b].

On to `CN(C)S(=O)(=O)c1ccc(Nc2ncc(Br)c(NC3CCC3)n2)cc1` [Compound 91], for which the log p (pH 2.7) is 2.73[b].

As for `CC(C)(C)C(=O)Nc1ccc(Nc2ncc(Br)c(NC3CCC3)n2)cc1` [Compound 92], for the setting “pH 2.7”, the log p was 2.02[b].

In the case of `CCN(C(C)=O)c1ccc(Nc2ncc(Br)c(NC3CCC3)n2)cc1` [Compound 93], the log p (pH 2.7) is 1.92[b].

Consider `CC(=O)N(C)c1ccc(Nc2ncc(Br)c(NC3CCC3)n2)cc1` [Compound 94], for which the log p (pH 2.7) was 1.73[b].

With `O=C(Nc1ccc(Nc2ncc(Br)c(NC3CCC3)n2)cc1)C(F)(F)F` [Compound 95], for the setting “pH 2.7”, the log p was 2.21[b].

With `CCC(=O)Nc1cccc(Nc2ncc(Br)c(NC3CCC3)n2)c1` [Compound 97], the log p (pH 2.7) is 1.71[b].

On to `C=C(C)C(=O)Nc1cccc(Nc2ncc(Br)c(NC3CCC3)n2)c1` [Compound 98], for which the log p (pH 2.7) is 1.9[b].

With `CC(C)(C)C(=O)Nc1cccc(Nc2ncc(Br)c(NC3CCC3)n2)c1` [Compound 99], under “pH 2.7”, the log p is 2.11[b].

On to `CNC(=O)c1ccc(Nc2ncc(Br)c(NC3CCC3)n2)cc1` [Compound 101], for which the log p (pH 2.7) is 1.54[b].

As to `CC(C)(C)NC(=O)c1ccc(Nc2ncc(Br)c(NC3CCC3)n2)cc1` [Compound 102], the log p (pH 2.7) was 2.46[b].

On to `CC(C)(C)C(=O)Cc1ccc(Nc2ncc(Br)c(NC3CCC3)n2)cc1` [Compound 104], for which the log p (pH 2.7) was 2.63[b].

On to `CCOC(=O)Nc1cccc(Nc2ncc(Br)c(NC3CCC3)n2)c1` [Compound 105], for which the log p (pH 2.7) was 2.04[b].

On to `COC(=O)Nc1cccc(Nc2ncc(Br)c(NC3CCC3)n2)c1` [Compound 106], for which the log p (pH 2.7) was 1.83[b].

Consider `COc1cc(Nc2ncc(Cl)c(NC3CCC3)n2)ccc1NC(C)=O` [Compound 108], for which, for the setting “pH 2.7”, the log p was 1.55[b].

With `COc1cccc(Nc2ncc(Cl)c(NC3CCC3)n2)c1` [Compound 109], the log p (pH 2.7) was 2.06[b].

`COc1ccc(Nc2ncc(Cl)c(NC3CCC3)n2)cc1` [Compound 110]: the log p (pH 2.7) is 1.75[b].

Regarding `N#Cc1ccc(Nc2ncc(Cl)c(NC3CCC3)n2)cc1` [Compound 111], where the note is “pH 2.7”, the log p is 2.77[b].

Turning to `CC(C)(C)C(=O)Nc1ccc(Nc2ncc(Cl)c(NC3CCC3)n2)cc1` [Compound 116], the log p (pH 2.7) is 1.94[b].

For `CC(=O)Nc1ccc(Nc2ncc(Cl)c(NC3CCC3)n2)cc1` [Compound 117], the log p (pH 2.7) was 1.43[b].

`CCN(C(C)=O)c1ccc(Nc2ncc(Cl)c(NC3CCC3)n2)cc1` [Compound 119]: the log p (pH 2.7) is 1.83[b].

For `CC(C)(C)C(=O)Nc1cccc(Nc2ncc(Cl)c(NC3CCC3)n2)c1` [Compound 125], under “pH 2.7”, the log p is 2.04[b].

Turning to `CNC(=O)c1ccc(Nc2ncc(Cl)c(NC3CCC3)n2)cc1` [Compound 126], the log p (pH 2.7) is 1.5[b].

As for `COC(=O)Nc1ccc(Nc2ncc(Cl)c(NC3CCC3)n2)cc1` [Compound 135], where the note is “pH 2.7”, the log p was 1.61[b].

On to `CCOC(=O)Nc1cccc(Nc2ncc(Cl)c(NC3CCC3)n2)c1` [Compound 137], for which the log p (pH 2.7) was 1.94[b].

As to `CNC(=O)Oc1cccc(Nc2ncc(Cl)c(NC3CCC3)n2)c1` [Compound 138], the log p (pH 2.7) is 1.64[b].

Regarding `COC(=O)Nc1cccc(Nc2ncc(Cl)c(NC3CCC3)n2)c1` [Compound 139], the log p amounted to 1.73.

Regarding `CC1(C(=O)Nc2cccc(Nc3ncc(Cl)c(NC4CCC4)n3)c2)CC1` [Compound 140], the log p (pH 2.7) is 1.92[b].

In the case of `CC(C)(CF)C(=O)Nc1cccc(Nc2ncc(Cl)c(NC3CCC3)n2)c1` [Compound 141], where the note is “pH 2.7”, the log p was 1.97[b].

`CC(C)(C)NC(=O)Cc1cccc(Nc2ncc(Br)c(NC3CCC3)n2)c1` [Compound 143]: the log p (pH 2.7) was 2.19[b].

As to `CC(C)Sc1cccc(Nc2ncc(Cl)c(NC3CCC3)n2)c1` [Compound 146], the log p (pH 2.7) is 3.62[b].

For `O=S(=O)(c1cccc(Nc2ncc(Br)c(NC3CCC3)n2)c1)N1CCOCC1` [Compound 147], the log p (pH 2.7) is 2.46[b].

With `CC(=O)c1cc(Nc2ncc(Br)c(NC3CCC3)n2)ccc1Cl` [Compound 150], under “pH 2.7”, the log p was 2.95[b].

As for `O=CNc1ccc(Nc2ncc(Br)c(NC3CCC3)n2)cc1` [Compound 152], the log p (pH 2.7) is 1.47[b].

For `CN(C=O)c1ccc(Nc2ncc(Br)c(NC3CCC3)n2)cc1` [Compound 153], the log p (pH 2.7) was 1.68[b].

As to `O=CNc1cccc(Nc2ncc(Br)c(NC3CCC3)n2)c1` [Compound 154], the log p (pH 2.7) is 1.58[b].

For the molecule `CN(C)S(=O)(=O)c1cccc(Nc2ncc(Br)c(NC3CCC3)n2)c1` [Compound 157], the log p (pH 2.7) is 2.53[b].

Consider `CN(C)S(=O)(=O)Oc1ccc(Nc2ncc(Br)c(NC3CCC3)n2)cc1` [Compound 160], for which the log p (pH 2.7) was 2.46[b].

Consider `CC(C)(C)OC(=O)Nc1ccc(Nc2ncc(Br)c(NC3CCC3)n2)cc1` [Compound 162], for which the log p (pH 2.7) was 2.36[b].
